“And” between values parts separate entries of the source, which are not always exact repeats. Identical values can stand only once. Like-named read-outs stand apart in the source and are kept apart here.
Key:
[1] = tested on: approximately 160 different ligand binding assays; experiment: Battery of approximately 160 different ligand binding assays at 10 μM; details: active = ≥50% inhibition with an IC50 <1µM
[2] = tested on: GABAA receptors (benzodiazepine binding site); experiment: PET with [11C]flumazenil (HRRT): GABAA receptor occupancy; assay type: in vivo, human; details: for Occupancy (%) OC: occipital cortex; for Occupancy (%) OC / Occupancy (%) AMG / Occupancy (%) CER / Occupancy (%) PUT: 1 h after drug administration; for Occupancy (%) AMG: amygdala; for Occupancy (%) CER: cerebellum; for Occupancy (%) PUT: putamen
Protocol: Two separate open-label phase I PET studies were conducted in 2008–2009.
The initial study design included two sequential panels, with two subjects in each. The first panel was intended to obtain initial receptor occupancy values, to be used for dose selection in the second panel. […] The studies followed an adaptive design, i.e., doses and PET measurements were adjusted depending on the results of preceding measurements. […] To optimize quantification of the relationship between AZ6280 exposure and receptor occupancy, the number of subjects with the highest 40 mg dose was increased (Fig. 1).
The head of the subject was fixed using individual plaster helmet. A sterile physiological phosphate buffer (pH 7.4) solution containing [^11C]flumazenil was injected intravenously as a bolus during 2 s, immediately followed by flush with 10 ml saline. The injected radioactivity for [^11C]flumazenil was in the range of 330–350 MBq, (340 (9) MBq, mean, SD) in the study 1 and in the range of 317–363 MBq (335 (16) MBq) in the study 2. The specific radioactivity of the radioligand at time of injection ranged from 310 to 1465 GBq/μmol (730 (414) GBq/μmol, mean, SD) and from 464 to 1879 GBq/μmol (977 (424) GBq/μmol, mean, SD), for study 1 and study 2, respectively.
PET examinations were performed over 63 min (HRRT; Siemens/CTI). List mode data were reconstructed using the ordinary Poisson 3D ordered subset estimation maximization algorithm, with 10 iterations and 16 subsets including modeling of the point spread function (Varrone et al. [2009]) into a 4D PET image containing 33 consecutive time frames (9 × 10 s, 2 × 15 s, 3 × 20 s, 4 × 30 s, 4 × 60 s, 4 × 180 s, 7 × 360 s) with a 3D array of 256 × 256 × 207 voxels having a size of 1.22 × 1.22 × 1.22 mm.
The anatomical brain regions were delineated manually on the MR images using in-house image analysis software. The regions included cortical and striatal subregions, thalamus, cerebellum, limbic regions, pons, and whole brain. The following four regions were selected in the final analysis: The occipital cortex and cerebellum were chosen because of the highest GABAA receptor binding by [^11C]flumazenil and good imaging statistics and preferential distribution of α1/α2 receptor subtypes; the amygdala was chosen because of its role in the brain circuits involved in anxiety and putamen for preferential α1/α2/α3 versus α5 receptor subtypes (Lingford-Hughes et al. [2002]; Fatemi et al. [2013]; Waldvogel and Faull [2015]). For the pons, the ROI was drawn on horizontal projection on the six central slices. […] The concentration of radioactivity in each ROI, calculated for each sequential time frame and corrected for ^11C decay, was plotted versus time (TACs).
An index of neuronal GABAA receptor density or binding potential (BPND) was calculated using the simplified reference tissue model (Lammertsma and Hume [1996]) and pons as a reference region. The calculated receptor occupancy (%) was then correlated to drug exposure according to the following equation:1 Occupancy=Occmax×Cav,PET/Ki,plasma+Cav,PET
where Occmax is the maximal occupancy induced by drug, C av,PET is the total drug plasma concentration, and K i,plasma is the inhibition constant corresponding to the drug plasma concentration required for half-maximum receptor occupancy. Non-linear least squares curve fitting of the relationship between drug plasma concentration and receptor occupancy was performed using Matlab R2007b (http://de.mathworks.com). Regional data were fitted simultaneously to obtain a single estimate of K i,plasma and regionally different estimates of Occmax. Best fit estimate and confidence interval (95% CI) were obtained on the logarithmic scale.

[3] = cited from earlier work
[4] = parameters: method as in Chen et al. 2014, 2015; details: neurophysiological test battery; ref Chen et al. 2014, 2015; cited from earlier work
[5] = Plasma pharmacokinetics after single oral doses in the PET studies; assay type: in vivo, human; details: for C av,PET: average plasma concentration at time of PET
Protocol: Venous blood samples for determination of drug plasma concentrations were collected at approximately 15 min before [^11C]flumazenil injection and at 15 and 30 min and 3, 4, 6, 8, 10, 12, 16, 24, 36, and 48 h after drug administration, including three samples during PET measurement, at 1, 1.30, and 2 h after drug administration.
Calculations of the pharmacokinetic parameters included the maximum plasma concentration (C max), the time to the maximum plasma concentration (T max), and the average drug plasma concentration during the PET measurement (C av,PET) (division of the partial area corresponding to the start and end times of PET assessment, AUCPET, by the duration of the PET measurement). The pharmacokinetic calculations were performed using non-compartmental analysis using WinNonlin™, Pharsight Corporation.

human MT1 receptor = human MT1 receptor (Homo sapiens, UniProt P48039); experiment: MT1 receptor GTPγS studies; assay type: biochemical
human MT1 receptor, sequence (P48039 whole entry): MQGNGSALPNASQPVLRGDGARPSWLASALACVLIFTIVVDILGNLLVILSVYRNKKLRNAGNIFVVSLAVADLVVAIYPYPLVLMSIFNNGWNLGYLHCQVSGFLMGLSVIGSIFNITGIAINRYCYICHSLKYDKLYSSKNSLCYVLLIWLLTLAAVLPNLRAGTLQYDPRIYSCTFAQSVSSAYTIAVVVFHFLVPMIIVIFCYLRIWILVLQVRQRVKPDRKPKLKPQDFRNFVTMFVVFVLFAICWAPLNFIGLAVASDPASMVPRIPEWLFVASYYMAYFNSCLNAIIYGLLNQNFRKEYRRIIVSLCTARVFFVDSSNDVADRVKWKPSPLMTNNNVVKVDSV

[6] = Brain exposure in animals; assay type: in vivo
[7] = Safety and tolerability in the PET studies; assay type: in vivo, human
From the text: Safety and tolerability assessments included records of adverse events, vital signs (blood pressure, heart rate), Allen’s test, ECG, clinical chemistry, hematology assessments, and urinalysis.

[8] = AZD6280 5 to 40 mg single oral doses

SMILES: CCCNC(=O)c1nnc2c(-c3cc(OC)ccc3OC)cccc2c1N [AZD6280]
- activity in the battery of ligand binding assays [1]: only assays in which either compound was active were the melatonin Type 1 and Type 2 receptors
- receptor occupancy at the maximum tolerated dose ([2]; 40 mg AZD6280, cortex and cerebellum): over 60%
- Occupancy (%) OC ([2]; AZD6280 single oral dose 5 mg): 11% and 7%
- Occupancy (%) AMG ([2]; AZD6280 single oral dose 12 mg): −8%
- Occupancy (%) CER ([2]; AZD6280 single oral dose 12 mg): 25%
- Occupancy (%) OC ([2]; AZD6280 single oral dose 12 mg): 17%
- Occupancy (%) PUT ([2]; AZD6280 single oral dose 12 mg): 0%
- Occupancy (%) AMG ([2]; AZD6280 single oral dose 20 mg): 20%
- Occupancy (%) CER ([2]; AZD6280 single oral dose 20 mg): 65%
- Occupancy (%) OC ([2]; AZD6280 single oral dose 20 mg): 60%
- Occupancy (%) PUT ([2]; AZD6280 single oral dose 20 mg): 32%
- Occupancy (%) AMG ([2]; AZD6280 single oral dose 30 mg): 9% and 5%
- Occupancy (%) CER ([2]; AZD6280 single oral dose 30 mg): 50% and 59%
- Occupancy (%) OC ([2]; AZD6280 single oral dose 30 mg): 39% and 43%
- Occupancy (%) PUT ([2]; AZD6280 single oral dose 30 mg): 16% and 14%
- Occupancy (%) CER ([2]; AZD6280 single oral dose 40 mg): 69% and 61% and 62% and 60%
- Occupancy (%) OC ([2]; AZD6280 single oral dose 40 mg): 50% and 52% and 62% and 53% and 36%
- Receptor occupancy (RO) ([2]; at 40mg, MTD, present study): 60-70%
- Ki ([2]; read-out: K i,plasma (plasma concentration required for 50% receptor occupancy), hyperbolic fit of occupancy vs C av,PET, regional data fitted simultaneously): 440 nM
- sedation scores in VAS alertness scale compared to placebo ([3]; 1 h post-dose, dose ≥20 mg, ref AZ data on file): numerically higher sedation scores
- correct answers on DSST ([3]; 2 h after administration, dose ≥20 mg, ref AZ data on file): lower mean correct answers
- relationship between dose and alertness or cognitive performance ([3]; VAS alertness-sedation, Modified Wilson Sedation Scale, DSST, ref NCT00681317 and NCT00681915): no significant relationship
- receptor occupancy up to which no cognitive or hypnotic side effects were observed [4]: up to 60%
- T max ([5]; AZD6280 single oral dose 5 mg, individual subjects): 108 min
- Cmax ([5]; AZD6280 single oral dose 5 mg, individual subjects, read-out: C max): 179 nM and 77.2 nM
- C av,PET ([5]; AZD6280 single oral dose 12 mg): 204.68 nM
- C av,PET ([5]; AZD6280 single oral dose 20 mg): 592.22 nM
- C av,PET ([5]; AZD6280 single oral dose 30 mg): 513.07 nM and 676.82 nM
- T max ([5]; AZD6280 single oral dose 30 mg, individual subjects): 30 min
- Cmax ([5]; AZD6280 single oral dose 30 mg, individual subjects, read-out: C max): 731 nM
- T max ([5]; AZD6280 single oral dose 40 mg, individual subjects): 30 min and 36 min
- Cmax ([5]; AZD6280 single oral dose 40 mg, individual subjects, read-out: C max): 1250 nM and 1500 nM and 439 nM and 1510 nM
- Cmax ([5]; human, plasma, oral, range over all doses and subjects, read-out: range for peak exposures, Cmax): 28.3 to 555 ng/mL
- Tmax ([5]; human, plasma, po, 5 mg, AZD6280 single oral dose 5 mg, individual subjects): 60 min
- Tmax ([5]; human, plasma, po, 12 mg, AZD6280 single oral dose 12 mg, individual subject): 54 min
- Cmax ([5]; human, plasma, po, 12 mg, AZD6280 single oral dose 12 mg, individual subject, read-out: C max): 249 nM
- Tmax ([5]; human, plasma, po, 20 mg, AZD6280 single oral dose 20 mg, individual subject): 96 min
- Cmax ([5]; human, plasma, po, 20 mg, AZD6280 single oral dose 20 mg, individual subject, read-out: C max): 677 nM
- Cmax ([5]; human, plasma, po, 30 mg, AZD6280 single oral dose 30 mg, individual subjects, read-out: C max): 729 nM
- EC50 (human MT1 receptor): 19 nM
- Emax (human MT1 receptor): 90%
- brain exposure [6]: good brain exposure
- most common AEs: dizziness [7, 8]: four of eight subjects
- most common AEs: feeling drunk [7, 8]: two out of eight subjects
- receptor occupancy at the doses/exposure at which adverse events were reported ([7]; AZD7325 5, 20 and 30 mg, AZD6280 20 mg and above): > 60%
- high receptor occupancy reached without obvious sedative effects ([7]; PET studies): > 60%
- doses at which AEs were reported ([7]; not at 5 and 12 mg dose): ≥ 20 mg

Reference: paper PMC5263201, “GABAA receptor occupancy by subtype selective GABAAα2,3 modulators: PET studies in humans” (Psychopharmacology, 2016)
